PubChem BioAssay AID330 (DTP/NCI, 2004)
Values joined by “and” are separate entries in the source; they are usually repeats but may differ in a detail not shown here. Equal entries are not always repeated. Inconclusive results and toxic doses are left out. Rule for the calls: active = survival T/C of 150% or more; inactive = T/C below 125% in these data.

Tested on: P388 leukemia ip, CD2F1 mice, survival T/C
Experiment: NCI In Vivo Anticancer Drug Screen. Data for tumor model P388 Leukemia (intraperitoneal) in CD2F1 (CDF1) mice
Conditions: endpoint: median survival time, higher = longer survival
How it was run: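 Mice carrying the transplanted tumor received test compound or vehicle. Survival was recorded in each group, and the value is the treated-group measurement divided by that of the vehicle-treated control group.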

[1] = dose: 12.5 mg/kg/injection, schedule: Q01DX005 (ip), vehicle: saline with Tween-80
[2] = dose: 25.0 mg/kg/injection, schedule: Q01DX005 (ip), vehicle: saline with Tween-80
[3] = dose: 50.0 mg/kg/injection, schedule: Q01DX005 (ip), vehicle: saline with Tween-80
[4] = dose: 100.0 mg/kg/injection, schedule: Q01DX005 (ip), vehicle: saline with Tween-80
[5] = dose: 50.0 mg/kg/injection, schedule: Q01DX009 (ip), vehicle: saline
[6] = dose: 100.0 mg/kg/injection, schedule: Q01DX009 (ip), vehicle: saline
[7] = dose: 200.0 mg/kg/injection, schedule: Q01DX009 (ip), vehicle: saline
[8] = dose: 50.0 mg/kg/injection, schedule: Q01DX005 (ip), vehicle: Klucel (hydroxypropylcellulose) (HPC)
[9] = dose: 100.0 mg/kg/injection, schedule: Q01DX005 (ip), vehicle: Klucel (hydroxypropylcellulose) (HPC)
[10] = dose: 200.0 mg/kg/injection, schedule: Q01DX005 (ip), vehicle: Klucel (hydroxypropylcellulose) (HPC)
[11] = dose: 50.0 mg/kg/injection, schedule: Q01DX009 (ip), vehicle: Klucel (hydroxypropylcellulose) (HPC)
[12] = dose: 200.0 mg/kg/injection, schedule: Q01DX005 (ip), vehicle: saline with Tween-80

Measured: T/C

CCc1nc(N)nc(N)c1-c1ccc(Cl)c(NN=NC)c1
inactive: [1] 109 % of control | [2] 108 % of control | [3] 105 % of control and 110 % of control | [4] 112 % of control

CP1(=S)CCC(=O)C1 (centres undefined)
inactive: [5] 101 % of control | [6] 101 % of control | [7] 103 % of control

O=C(OCCn1ncnn1)c1ccc([N+](=O)[O-])cc1
inactive: [8] 104 % of control | [9] 104 % of control | [10] 95 % of control

Cc1ccccc1C1N=C2Oc3ccccc3C=C2C(=O)N1 (centres undefined)
inactive: dose: 12.5 mg/kg/injection, schedule: Q01DX005 (ip), vehicle: Klucel (hydroxypropylcellulose) (HPC) 100 % of control and 102 % of control and 98 % of control | dose: 25.0 mg/kg/injection, schedule: Q01DX005 (ip), vehicle: Klucel (hydroxypropylcellulose) (HPC) 93 % of control

O=C(Cc1ccccc1)Nc1ncc([N+](=O)[O-])s1
inactive: [11] 116 % of control | dose: 100.0 mg/kg/injection, schedule: Q01DX009 (ip), vehicle: Klucel (hydroxypropylcellulose) (HPC) 106 % of control | dose: 200.0 mg/kg/injection, schedule: Q01DX009 (ip), vehicle: Klucel (hydroxypropylcellulose) (HPC) 100 % of control

CCOC(=O)c1cnc2c(OC)cccc2c1Nc1ccc2c(c1)OCO2
inactive: dose: 60.0 mg/kg/injection, schedule: Q01DX005 (ip), vehicle: Klucel (hydroxypropylcellulose) (HPC) 101 % of control | dose: 120.0 mg/kg/injection, schedule: Q01DX005 (ip), vehicle: Klucel (hydroxypropylcellulose) (HPC) 97 % of control | dose: 240.0 mg/kg/injection, schedule: Q01DX005 (ip), vehicle: Klucel (hydroxypropylcellulose) (HPC) 96 % of control

CN(C)N(P(c1ccccc1)c1ccccc1)P(c1ccccc1)c1ccccc1
inactive: dose: 100.0 mg/kg/injection, schedule: Q04DX003 (ip), vehicle: saline with Tween-80 93 % of control | dose: 200.0 mg/kg/injection, schedule: Q04DX003 (ip), vehicle: saline with Tween-80 92 % of control | dose: 400.0 mg/kg/injection, schedule: Q04DX003 (ip), vehicle: saline with Tween-80 94 % of control

C[C@]12CC[C@@H]3c4ccc(OCCCO)c([N+](=O)[O-])c4CC[C@H]3[C@@H]1CCC2=O
inactive: [2] 100 % of control | [3] 106 % of control | [4] 91 % of control | [12] 88 % of control

O/N=C\c1cc2ccccc2c[n+]1Cc1ccc2ccc3cccc4ccc1c2c34
inactive: dose: 6.25 mg/kg/injection, schedule: Q01DX005 (ip), vehicle: saline with Tween-80 108 % of control | [1] 108 % of control

O=C(CNC(=O)OCc1ccccc1)NCC(=O)NC(Cc1c[nH]c2ccccc12)C(=O)O (centres undefined)
inactive: dose: 50.0 mg/kg/injection, schedule: Q01DX005 (ip), vehicle: suspension in saline 99 % of control | dose: 100.0 mg/kg/injection, schedule: Q01DX005 (ip), vehicle: suspension in saline 97 % of control | dose: 200.0 mg/kg/injection, schedule: Q01DX005 (ip), vehicle: suspension in saline 105 % of control

CC1(C)OC2(C)CCC1C1C2N1C(=O)c1ccc([N+](=O)[O-])cc1 (centres undefined)
inactive: [8] 96 % of control | [9] 102 % of control | [10] 110 % of control

COc1ccc(Cc2cc3c(cc2OC)OCO3)cc1
inactive: dose: 2.5 mg/kg/injection, schedule: Q01DX009 (ip), vehicle: saline with Tween-80 99 % of control | dose: 5.0 mg/kg/injection, schedule: Q01DX009 (ip), vehicle: saline with Tween-80 99 % of control | dose: 10.0 mg/kg/injection, schedule: Q01DX009 (ip), vehicle: saline with Tween-80 99 % of control | dose: 15.0 mg/kg/injection, schedule: Q01DX005 (ip), vehicle: saline with Tween-80 102 % of control | dose: 31.0 mg/kg/injection, schedule: Q01DX005 (ip), vehicle: saline with Tween-80 102 % of control | dose: 62.5 mg/kg/injection, schedule: Q01DX005 (ip), vehicle: saline with Tween-80 109 % of control | dose: 125.0 mg/kg/injection, schedule: Q01DX005 (ip), vehicle: saline with Tween-80 103 % of control | dose: 250.0 mg/kg/injection, schedule: Q01DX005 (ip), vehicle: saline with Tween-80 103 % of control

C=CCn1nc([O-])[n+]2ccccc12
inactive: dose: 100.0 mg/kg/injection, schedule: Q01DX001 (ip), vehicle: saline 95 % of control | dose: 200.0 mg/kg/injection, schedule: Q01DX001 (ip), vehicle: saline 95 % of control | dose: 400.0 mg/kg/injection, schedule: Q01DX001 (ip), vehicle: saline 104 % of control

Oc1c(Cl)cc(Cl)cc1/C=N/NC(=S)Nc1cc(C(F)(F)F)cc(C(F)(F)F)c1
inactive: dose: 12.5 mg/kg/injection, schedule: Q01DX009 (ip), vehicle: olive oil, sesame oil, peanut oil 105 % of control | dose: 25.0 mg/kg/injection, schedule: Q01DX009 (ip), vehicle: olive oil, sesame oil, peanut oil 107 % of control | dose: 50.0 mg/kg/injection, schedule: Q01DX009 (ip), vehicle: olive oil, sesame oil, peanut oil 120 % of control | dose: 50.0 mg/kg/injection, schedule: Q01DX009 (oral), vehicle: saline with Tween-80 92 % of control | dose: 100.0 mg/kg/injection, schedule: Q01DX009 (ip), vehicle: olive oil, sesame oil, peanut oil 86 % of control | dose: 100.0 mg/kg/injection, schedule: Q01DX009 (oral), vehicle: saline with Tween-80 108 % of control | dose: 200.0 mg/kg/injection, schedule: Q01DX009 (oral), vehicle: saline with Tween-80 99 % of control | dose: 400.0 mg/kg/injection, schedule: Q01DX009 (oral), vehicle: saline with Tween-80 90 % of control

O=C(OC1(c2nccc3ccccc23)CCN(CCc2ccccc2)CC1)c1ccccc1
inactive: dose: 6.25 mg/kg/injection, schedule: Q01DX009 (ip), vehicle: saline 105 % of control | dose: 12.5 mg/kg/injection, schedule: Q01DX009 (ip), vehicle: saline 99 % of control | dose: 25.0 mg/kg/injection, schedule: Q01DX009 (ip), vehicle: saline 97 % of control

Cc1ccc2c(c1)C(C)(C)C(O)CC2(C)C (centres undefined)
inactive: [8] 98 % of control | [9] 106 % of control | [10] 109 % of control

CCOC(=O)CC1=CSC(=C(C(=O)OCC)C(=O)OCC)N1c1ccccc1
inactive: [3] 96 % of control | [4] 91 % of control | [12] 86 % of control

CC1=Nc2ccccc2C(=O)NN1
inactive: dose: 100.0 mg/kg/injection, schedule: Q04DX002 (ip), vehicle: saline with Tween-80 101 % of control | dose: 200.0 mg/kg/injection, schedule: Q04DX002 (ip), vehicle: saline with Tween-80 101 % of control | dose: 400.0 mg/kg/injection, schedule: Q04DX002 (ip), vehicle: saline with Tween-80 102 % of control

COc1cc(O)c2c(O)c3c(c4c2c1[C@]1(C4)C(C)=CCCC1(C)C)[C@H](O)[C@@]1(O)CC(=O)C(C(N)=O)=C(O)[C@@]1(O)C3=O
inactive: dose: 6.25 mg/kg/injection, schedule: Q04DX003 (ip), vehicle: saline with Tween-80 100 % of control | dose: 12.0 mg/kg/injection, schedule: Q01DX009 (ip), vehicle: saline with Tween-80 112 % of control | dose: 12.5 mg/kg/injection, schedule: Q04DX003 (ip), vehicle: saline with Tween-80 100 % of control | dose: 25.0 mg/kg/injection, schedule: Q01DX009 (ip), vehicle: Klucel (hydroxypropylcellulose) (HPC) 120 % of control and 121 % of control | dose: 25.0 mg/kg/injection, schedule: Q04DX003 (ip), vehicle: saline with Tween-80 113 % of control | [11] 111 % of control

COc1ccc(NC(=O)N2CCOCC2)cc1
inactive: [5] 92 % of control | [6] 92 % of control | [7] 88 % of control

Nc1ccc(-c2ccc(C(=O)O)cc2)cc1
inactive: dose: 60.0 mg/kg/injection, schedule: Q01DX005 (ip), vehicle: saline with Tween-80 104 % of control | dose: 120.0 mg/kg/injection, schedule: Q01DX005 (ip), vehicle: saline with Tween-80 106 % of control | dose: 240.0 mg/kg/injection, schedule: Q01DX005 (ip), vehicle: saline with Tween-80 109 % of control

C[n+]1cccc2ccccc21
inactive: dose: 100.0 mg/kg/injection, schedule: Q04DX003 (ip), vehicle: saline 109 % of control

CC(=O)Nc1cscc1NC(C)=O
inactive: dose: 25.0 mg/kg/injection, schedule: Q01DX009 (ip), vehicle: saline with Tween-80 101 % of control | dose: 50.0 mg/kg/injection, schedule: Q01DX009 (ip), vehicle: saline with Tween-80 94 % of control | dose: 100.0 mg/kg/injection, schedule: Q01DX009 (ip), vehicle: saline with Tween-80 100 % of control | dose: 200.0 mg/kg/injection, schedule: Q01DX009 (ip), vehicle: saline with Tween-80 101 % of control

COc1cc2c[n+](C)c3c4cc(OC)c(OC)cc4c(O)cc3c2cc1OC
inactive: [8] 99 % of control | [9] 97 % of control | [10] 99 % of control
